*1 amine or outer side, *2 acyl side, *3 side chain or, on linkers, in order; H or OH if unused. Where a SMILES comes first, the peptide text is derived from it. Bridges are numbered along the chain shown (N, C = ends). Triazole bridges read from a SMILES are 1,4-linked. [ ]: non-standard residue; d: D form. X1 = Cc1sc(C(=O)[C@@H]2CCCN2[*:2])cc1C1=C(c2cc(C(=O)[*:1])sc2C)CCC1; Orn(N3) = [N-]=[N+]=NCCC[C@H](N)C(=O)O; Aha = [N-]=[N+]=NCC[C@H](N)C(=O)O; hCys = N[C@@H](CCS)C(=O)O; Pra = C#CC[C@H](N)C(=O)O
Key:
[1] = molecular target: T1, Bos taurus trypsin 1 (T1) (Bos taurus, UniProt P00760); assay: Trypsin inhibition, Ki by Lineweaver-Burk analysis; conditions: for K i (closed) /K i (open): ratio of ring-closed to ring-open isomer, T1;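 as to all read-outs here: trypsin activity followed by spectrophotometric hydrolysis kinetics of the chromogenic substrate BAPNA in Tris buffer, Ki obtained from double-reciprocal Lineweaver–Burk plots at several substrate concentrations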
T1 sequence (P00760 24-246): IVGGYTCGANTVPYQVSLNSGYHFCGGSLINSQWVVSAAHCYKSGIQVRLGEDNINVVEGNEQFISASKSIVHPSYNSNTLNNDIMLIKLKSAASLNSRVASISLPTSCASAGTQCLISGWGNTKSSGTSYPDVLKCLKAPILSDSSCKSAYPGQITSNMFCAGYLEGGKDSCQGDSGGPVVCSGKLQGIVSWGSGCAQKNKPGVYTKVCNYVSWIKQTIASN
Method: Protease inhibition assays
The inhibition of trypsin and α-chymotrypsin was investigated by two methods. First, the inhibition was determined at a fixed enzyme and substrate concentration, whereas the inhibitor concentration varied. By plotting the protease activity against an inhibitor’s concentration, IC50 (the half-maximal inhibitory concentration) was determined.
Lineweaver–Burk analysis (see below), the Ki values for all peptide inhibitors were determined with high accuracy.
All measurements were performed with p-nitroaniline-based chromogenic substrates (λabs = 405 nm) in 96-well microtiter plates using
EpochTM 2 microplate spectrophotometer. For trypsin measurements the Tris buffer (50 mM Tris-HCl, 25 mM CaCl2, 0.005% Tween®
For the measurements, a fresh 0.92 µM trypsin solution was prepared from the storage aliquot and kept on ice.
A stock solution of the substrate BAPNA (Nα-Benzoyl-DL-arginine 4-nitroanilide hydrochloride) at the concentration of 50 mM in
aqueous dimethyl sulfoxide (DMSO) (100 mg of BAPNA in 4.6 mL of DMSO:water mixture 1:1) was pre pared and stored at RT.
peptide solutions at the concentration of 100 µM, which was further diluted to 10, 1, or 0.1 µM if required, were prepared in Milli-Q®
deionized ultrapure water.
For the determination of IC50, a double dilution series of inhibit ors were prepared in a 96 -well plate (12 concentrations, two repeats
for each concentration, 200 µL of Tris buffer in each well). Subsequently, a trypsin solution (20 µL, 150 nM) was added to ea ch well
with the tested peptide and to the control row. Soluti ons in each well were intensely mixed using a multichannel pipette (from lower
concentration to higher). After a pre -incubation period (5 min), the substrate BAPNA was added to each well (20 µL, 25 mM).
solutions were thoroughly mixed with the multicha nnel pipette, and the kinetics of substrate hydrolysis was recorded with an interval
of 1 min between measurements over 20 min. The total volume in each well was 240 µL, final trypsin and BAPNA concentrations
were 12.5 nM and 2.08 mM, respectively. The mea n values of the two repeats of the slope of absorption vs. time curves were
calculated. The activities at different inhibitor concentrations were then calculated by taking the control curves’ slope val ues (no
inhibitor) as the 100% enzyme activity. The inh ibition activity IC 50 against α-chymotrypsin (α-chymotrypsin from bovine pancreas
type II) was measured in the same way except that a different substrate, Ac-EAPF-pNA (Ac-Glu-Ala-Pro-Phe-pNA), was used (20
Inhibitory constants Ki were determined by Lineweaver-Burk (LWB) double-reciprocal analysis according to a published protocol.[S5]
Briefly, a fresh inhibitor/enzyme mixture was prepared in a glass vial and distributed to 2x6 wells (200 µL in each well, enzyme
concentration after dilution 12 nM). An enzyme without an inhibitor was added to the control wells. Aliquots of varying substrate stock
solutions were added with a multichannel pipette to each well. For trypsin inhibition experiments, BAPNA (20 µL per well of 20, 22.7,
26, 29.8, 34, 40 mM) and for α-chymotrypsin Ac-EAPF-pNA (20 µL per well of 16, 12.48, 10, 8, 6.4, 5.44 mM) were used, respectively.
Well contents were thoroughly mixed using a multichannel pipette, and a plate reader was used to monitor the hydrolysis kinetics
(sampling interval of 1 min over 20 min).

trypsin = molecular target: T2, trypsin (Bos taurus, UniProt P00760); conditions: for k H [M^−1 s^−1] (closed): pH 8.2
T2 sequence (P00760 24-246): T1 sequence (P00760 24-246)
Method: Analysis of the proteolytic stability
Proteolytic stability of the peptides was characterized by determining hydrolysis rates (kH) by the action of trypsin in a 50 mM Tris–
HCl buffer, pH 8.2, supplemented with 25 mM CaCl2 and 0.005% Tween®20 at 22°C. The peptides at a concentration of 50 μM were
mixed with trypsin (0.5 μM) in a 2 mL total volume. At selected time intervals, 70 μL samples of the mixture were taken, quenched
by addition 130 μL 2% aqueous formic acid, and immediately analyzed by analytical HPLC. The kH values were calculated from the
time-dependent data assuming zero-order kinetics (zero-order kinetics applies due to the high substrate/enzyme ratio of 100 to 1).
For the fitting the linear part of the hydrolysis curve was taken excluding the last time point in which the entire peptide inhibitor was
analogues could hydrolyze at two positions: at the Lys (P1 position) of the inhibitory loop and after the stabilizing loop’s arginine
residue (P4 position).[S6] The ultimate product (i.e., cleaved at both positions) had, therefore, a MALDI-TOF-MS detectable mass
The identity of each peak was confirmed by MALDI -TOF-MS. Detection – 220 nm, hydrolysis time is indicated at each chromatogram.

[2] = Photostationary state under UV irradiation / photoconversion; type: physicochemical; conditions: deoxygenated water, 22 °C, continuous UV irradiation 320-400 nm; values with * by RP-HPLC
Method: Table S3 Photostationary states (PSS) for the studied peptides in deoxygenated water at 22 °C determined as the maximal conversion of the ring-open form to
ring-closed form under continuous UV irradiation (spectral range of 320-400 nm).
* As was determined by RP-HPLC analysis. […]

## CC[C@H](C)[C@@H]1NC(=O)[C@@H]2CCCN2C(=O)[C@@H]2CCCN2C(=O)[C@H]([C@@H](C)CC)NC(=O)[C@H](CO)NC(=O)[C@H](CCCCN)NC(=O)[C@H]([C@@H](C)O)NC(=O)[C@@H]2CSSC[C@H](NC1=O)C(=O)N[C@@H](Cc1ccccc1)C(=O)N1CCC[C@H]1C(=O)c1cc(c(C)s1)C1=C(CCC1)c1cc(sc1C)C(=O)N[C@@H](C(C)C)C(=O)N[C@@H](CCCNC(=N)N)C(=O)N2 [Peptide S8n] (VRCTKSIPPICF; disulfide 3-11; linker N-C via X1)
[1]; K i [nM] (closed)
  Ki: 125 ± 8 nM
[1]; K i [nM] (open)
  Ki: 5.2 ± 0.4 nM
trypsin
  k H (closed) /k H (open): 4.1
  k H [M^−1 s^−1] (closed): 5.3±1.4×10^−4 M^−1 s^−1

## CC[C@H](C)[C@@H]1NC(=O)[C@@H]2CCCN2C(=O)[C@@H]2CCCN2C(=O)[C@H]([C@@H](C)CC)NC(=O)[C@H](CO)NC(=O)[C@H](CCCCN)NC(=O)[C@H]([C@@H](C)O)NC(=O)[C@@H]2Cc3cn(nn3)CC[C@H](NC1=O)C(=O)N[C@@H](CCCNC(=N)N)C(=O)N[C@@H](CC(C)C)C(=O)N1CCC[C@H]1C(=O)c1cc(c(C)s1)C1=C(CCC1)c1cc(sc1C)C(=O)N[C@@H](C(C)C)C(=O)N[C@@H](Cc1ccccc1)C(=O)N2 [Peptide S11i] (VF[Pra]TKSIPPI[Aha]RL; triazole 3-11; linker N-C via X1)
[1]; K i [nM] (open)
  Ki: 1720 ± 130 nM
[1]
  K i (closed) /K i (open): 3.1
[2]
  PSS, % (maximal conversion of ring-open to ring-closed form): 80.2%
trypsin
  k H (closed) /k H (open): 3.3
  k H [M^−1 s^−1] (closed): 9.1±1×10^−2 M^−1 s^−1

## CC[C@H](C)[C@@H]1NC(=O)[C@@H]2CCCN2C(=O)[C@@H]2CCCN2C(=O)[C@H]([C@@H](C)CC)NC(=O)[C@H](CO)NC(=O)[C@H](CCCCN)NC(=O)[C@H]([C@@H](C)O)NC(=O)[C@@H]2CSSC[C@H](NC1=O)C(=O)N[C@@H](Cc1ccccc1)C(=O)N[C@@H](CC(C)C)C(=O)N1CCC[C@H]1C(=O)c1cc(c(C)s1)C1=C(CCC1)c1cc(sc1C)C(=O)N[C@@H](CCCNC(=N)N)C(=O)N2 [Peptide S9n] (RCTKSIPPICFL; disulfide 2-10; linker N-C via X1)
[1]; K i [nM] (closed)
  Ki: 55 ± 3.8 nM
[1]; K i [nM] (open)
  Ki: 8.3 ± 0.6 nM
trypsin
  k H (closed) /k H (open): 8.7
  k H [M^−1 s^−1] (closed): 1.3±0.1×10^−3 M^−1 s^−1

## CC[C@H](C)[C@@H]1NC(=O)[C@@H]2CCCN2C(=O)[C@@H]2CCCN2C(=O)[C@H]([C@@H](C)CC)NC(=O)[C@H](CO)NC(=O)[C@H](CCCCN)NC(=O)[C@H]([C@@H](C)O)NC(=O)[C@H](C)NC(=O)c2cc(c(C)s2)C2=C(CCC2)c2cc(sc2C)C(=O)[C@@H]2CCCN2C(=O)[C@H](C)NC1=O [Peptide S3] (ATKSIPPIA; linker N-C via X1)
[1]; K i [nM] (open)
  Ki: 101 ± 9 nM

## CC[C@H](C)[C@@H]1NC(=O)[C@@H]2CCCN2C(=O)[C@@H]2CCCN2C(=O)[C@H]([C@@H](C)CC)NC(=O)[C@H](CO)NC(=O)[C@H](CCCCN)NC(=O)[C@H]([C@@H](C)O)NC(=O)[C@@H]2CSSCC[C@H](NC1=O)C(=O)N[C@@H](CCCNC(=N)N)C(=O)N1CCC[C@H]1C(=O)c1cc(c(C)s1)C1=C(CCC1)c1cc(sc1C)C(=O)N[C@@H](Cc1ccccc1)C(=O)N2 [Peptide S5i] (FCTKSIPPI[hCys]R; disulfide 2-10; linker N-C via X1)
[1]; K i [nM] (closed)
  Ki: 182 ± 16 nM
[1]; K i [nM] (open)
  Ki: 102 ± 14 nM
trypsin
  k H (closed) /k H (open): 1.7
  k H [M^−1 s^−1] (closed): 5.0±0.8×10^−3 M^−1 s^−1

## CC[C@H](C)[C@@H]1NC(=O)[C@@H]2CCCN2C(=O)[C@@H]2CCCN2C(=O)[C@H]([C@@H](C)CC)NC(=O)[C@H](CO)NC(=O)[C@H](CCCCN)NC(=O)[C@H]([C@@H](C)O)NC(=O)[C@@H]2CSSC[C@H](NC1=O)C(=O)N[C@@H](CCCNC(=N)N)C(=O)N1CCC[C@H]1C(=O)c1cc(c(C)s1)C1=C(CCC1)c1cc(sc1C)C(=O)N[C@@H](Cc1ccccc1)C(=O)N2 [Peptide S1i] (FCTKSIPPICR; disulfide 2-10; linker N-C via X1)
[1]; K i [nM] (open)
  Ki: 13.4 ± 1.4 nM

## CC[C@H](C)[C@@H]1NC(=O)[C@@H]2CCCN2C(=O)[C@@H]2CCCN2C(=O)[C@H]([C@@H](C)CC)NC(=O)[C@H](CO)NC(=O)[C@H](CCCCN)NC(=O)[C@H]([C@@H](C)O)NC(=O)[C@@H]2Cc3cn(nn3)CCC[C@H](NC1=O)C(=O)N[C@@H](Cc1ccccc1)C(=O)N1CCC[C@H]1C(=O)c1cc(c(C)s1)C1=C(CCC1)c1cc(sc1C)C(=O)N[C@@H](CCCNC(=N)N)C(=O)N2 [Peptide S7n] (R[Pra]TKSIPPI[Orn(N3)]F; triazole 2-10; linker N-C via X1)
[1]; K i [nM] (closed)
  Ki: 2200 ± 214 nM
[1]; K i [nM] (open)
  Ki: 63.4 ± 4.4 nM
trypsin
  k H (closed) /k H (open): 30.5
  k H [M^−1 s^−1] (closed): 6.1±1.2×10^−2 M^−1 s^−1

## CC[C@H](C)[C@@H]1NC(=O)[C@@H]2CCCN2C(=O)[C@@H]2CCCN2C(=O)[C@H]([C@@H](C)CC)NC(=O)[C@H](CO)NC(=O)[C@H](CCCCN)NC(=O)[C@H]([C@@H](C)O)NC(=O)[C@@H]2Cc3cn(nn3)CC[C@H](NC1=O)C(=O)N[C@@H](Cc1ccccc1)C(=O)N1CCC[C@H]1C(=O)c1cc(c(C)s1)C1=C(CCC1)c1cc(sc1C)C(=O)N[C@@H](CCCNC(=N)N)C(=O)N2 [Peptide S6n] (R[Pra]TKSIPPI[Aha]F; triazole 2-10; linker N-C via X1)
[1]; K i [nM] (open)
  Ki: 135 ± 8 nM
[1]
  K i (closed) /K i (open): 8.3
[2]
  PSS, % (maximal conversion of ring-open to ring-closed form): 46.6%
trypsin
  k H (closed) /k H (open): 3.7
  k H [M^−1 s^−1] (closed): 2.5±0.8×10^−2 M^−1 s^−1

## CC[C@H](C)[C@@H]1NC(=O)[C@@H]2CCCN2C(=O)[C@@H]2CCCN2C(=O)[C@H]([C@@H](C)CC)NC(=O)[C@H](CO)NC(=O)[C@H](CCCCN)NC(=O)[C@H]([C@@H](C)O)NC(=O)[C@@H]2CSSCC[C@H](NC1=O)C(=O)N[C@@H](Cc1ccccc1)C(=O)N1CCC[C@H]1C(=O)c1cc(c(C)s1)C1=C(CCC1)c1cc(sc1C)C(=O)N[C@@H](CCCNC(=N)N)C(=O)N2 [Peptide S5n] (RCTKSIPPI[hCys]F; disulfide 2-10; linker N-C via X1)
[1]; K i [nM] (closed)
  Ki: 231 ± 14 nM
[1]; K i [nM] (open)
  Ki: 95 ± 6 nM
trypsin
  k H (closed) /k H (open): 13.6
  k H [M^−1 s^−1] (closed): 3.4±0.5×10^−2 M^−1 s^−1

## CC[C@H](C)[C@@H]1NC(=O)[C@@H]2CCCN2C(=O)[C@@H]2CCCN2C(=O)[C@H]([C@@H](C)CC)NC(=O)[C@H](CO)NC(=O)[C@H](CCCCN)NC(=O)[C@H]([C@@H](C)O)NC(=O)[C@@H]2CSSC[C@H](NC1=O)C(=O)N[C@@H](Cc1ccccc1)C(=O)N1CCC[C@H]1C(=O)c1cc(c(C)s1)C1=C(CCC1)c1cc(sc1C)C(=O)N[C@@H](CCCNC(=N)N)C(=O)N2 [Peptide S1n] (RCTKSIPPICF; disulfide 2-10; linker N-C via X1)
[1]; K i [nM] (open)
  Ki: 4.9 ± 0.3 nM

## CC[C@H](C)[C@@H]1NC(=O)[C@@H]2CCCN2C(=O)[C@@H]2CCCN2C(=O)[C@H]([C@@H](C)CC)NC(=O)[C@H](CO)NC(=O)[C@H](CCCCN)NC(=O)[C@H]([C@@H](C)O)NC(=O)c2cc(c(C)s2)C2=C(CCC2)c2cc(sc2C)C(=O)[C@@H]2CCCN2C1=O [Peptide S4] (TKSIPPI; linker N-C via X1)
[1]; K i [nM] (open)
  Ki: 22 ± 3 nM

## CC[C@H](C)[C@@H]1NC(=O)[C@@H]2CCCN2C(=O)[C@@H]2CCCN2C(=O)[C@H]([C@@H](C)CC)NC(=O)[C@H](CO)NC(=O)[C@H](CCCCN)NC(=O)[C@H]([C@@H](C)O)NC(=O)[C@@H]2Cc3cn(nn3)CCC[C@H](NC1=O)C(=O)N[C@@H](CCCNC(=N)N)C(=O)N[C@@H](CC(C)C)C(=O)N1CCC[C@H]1C(=O)c1cc(c(C)s1)C1=C(CCC1)c1cc(sc1C)C(=O)N[C@@H](C(C)C)C(=O)N[C@@H](Cc1ccccc1)C(=O)N2 [Peptide S12i] (VF[Pra]TKSIPPI[Orn(N3)]RL; triazole 3-11; linker N-C via X1)
[1]; K i [nM] (open)
  Ki: 2440 ± 215 nM
trypsin
  k H (closed) /k H (open): 3.0
  k H [M^−1 s^−1] (closed): 4.2±0.4×10^−2 M^−1 s^−1

## CC[C@H](C)[C@@H]1NC(=O)[C@@H]2CCCN2C(=O)[C@@H]2CCCN2C(=O)[C@H]([C@@H](C)CC)NC(=O)[C@H](CO)NC(=O)[C@H](CCCCN)NC(=O)[C@H]([C@@H](C)O)NC(=O)[C@@H]2Cc3cn(nn3)CCC[C@H](NC1=O)C(=O)N[C@@H](CCCNC(=N)N)C(=O)N1CCC[C@H]1C(=O)c1cc(c(C)s1)C1=C(CCC1)c1cc(sc1C)C(=O)N[C@@H](Cc1ccccc1)C(=O)N2 [Peptide S7i] (F[Pra]TKSIPPI[Orn(N3)]R; triazole 2-10; linker N-C via X1)
[1]; K i [nM] (closed)
  Ki: 7220 ± 360 nM
[1]; K i [nM] (open)
  Ki: 263 ± 30 nM
trypsin
  k H (closed) /k H (open): 73
  k H [M^−1 s^−1] (closed): 5.5±1×10^−1 M^−1 s^−1

## CC[C@H](C)[C@@H]1NC(=O)[C@@H]2CCCN2C(=O)[C@@H]2CCCN2C(=O)[C@H]([C@@H](C)CC)NC(=O)[C@H](CO)NC(=O)[C@H](CCCCN)NC(=O)[C@H]([C@@H](C)O)NC(=O)[C@@H]2Cc3cn(nn3)CC[C@H](NC1=O)C(=O)N[C@@H](CCCNC(=N)N)C(=O)N1CCC[C@H]1C(=O)c1cc(c(C)s1)C1=C(CCC1)c1cc(sc1C)C(=O)N[C@@H](Cc1ccccc1)C(=O)N2 [Peptide S6i] (F[Pra]TKSIPPI[Aha]R; triazole 2-10; linker N-C via X1)
[1]; K i [nM] (open)
  Ki: 441 ± 43 nM
[1]
  K i (closed) /K i (open): 17.5
[2]
  PSS, % (maximal conversion of ring-open to ring-closed form): 39.6%
trypsin
  k H (closed) /k H (open): 5.8
  k H [M^−1 s^−1] (closed): 1.1±0.2×10^−1 M^−1 s^−1
